Measured values: patent publication US11512090B2, “Muscarinic acetylcholine M1 receptor antagonists” (PIPELINE THERAPEUTICS, INC., priority 2018, dated 2022)
Like-named read-outs stand apart in the source and are kept apart here.

Legend:
Type in all cases: cell-based
human M1 receptor = molecular target: T1, human M1 receptor (Homo sapiens, UniProt P11229); test: In vitro functional assay of muscarinic acetylcholine receptor activity (aequorin calcium flux, antagonist mode vs EC80 acetylcholine), M1
T1 sequence (P11229 1-460): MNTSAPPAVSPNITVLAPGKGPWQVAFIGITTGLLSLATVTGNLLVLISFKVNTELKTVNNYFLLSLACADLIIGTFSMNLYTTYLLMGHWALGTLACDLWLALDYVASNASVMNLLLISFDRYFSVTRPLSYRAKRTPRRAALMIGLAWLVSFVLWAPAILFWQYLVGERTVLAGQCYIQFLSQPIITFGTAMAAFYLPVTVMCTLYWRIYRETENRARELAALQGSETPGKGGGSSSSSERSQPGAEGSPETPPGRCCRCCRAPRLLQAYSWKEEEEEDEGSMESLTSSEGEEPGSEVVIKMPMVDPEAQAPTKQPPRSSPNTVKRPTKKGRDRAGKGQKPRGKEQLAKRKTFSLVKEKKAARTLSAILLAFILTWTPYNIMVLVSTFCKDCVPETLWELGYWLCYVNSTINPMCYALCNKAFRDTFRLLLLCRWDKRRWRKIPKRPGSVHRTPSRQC
How it was run: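 Antagonism at M1 was measured as a concentration-dependent reduction of the EC80 acetylcholine-evoked aequorin luminescence, from which IC50 was derived. Human M1 CHO-K1 aequorin cells were first loaded with 5 uM coelenterazine h for 4 h and exposed to compound for 30 min at room temperature.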

M2 = molecular target: T2, M2 (Homo sapiens, UniProt P08172); test: In vitro functional assay of muscarinic acetylcholine receptor activity, M2; settings: antagonist IC50 at M2; read-out: M2 IC50
T2 sequence (P08172 1-466): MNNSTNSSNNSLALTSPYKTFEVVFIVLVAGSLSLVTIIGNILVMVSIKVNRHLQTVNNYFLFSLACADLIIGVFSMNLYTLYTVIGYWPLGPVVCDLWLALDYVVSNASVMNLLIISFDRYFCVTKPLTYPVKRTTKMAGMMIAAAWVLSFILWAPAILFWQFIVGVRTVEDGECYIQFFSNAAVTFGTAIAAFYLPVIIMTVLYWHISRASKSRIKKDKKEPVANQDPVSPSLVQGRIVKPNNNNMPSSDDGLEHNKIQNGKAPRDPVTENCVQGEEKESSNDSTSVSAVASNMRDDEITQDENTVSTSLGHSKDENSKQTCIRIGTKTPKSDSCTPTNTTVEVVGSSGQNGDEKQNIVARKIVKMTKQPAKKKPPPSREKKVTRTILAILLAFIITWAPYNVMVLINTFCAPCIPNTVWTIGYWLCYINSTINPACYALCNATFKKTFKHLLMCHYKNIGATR

M3 = M3 (Homo sapiens, UniProt P20309); test: In vitro functional assay of muscarinic acetylcholine receptor activity, M3
Chain of M3 (P20309 whole entry): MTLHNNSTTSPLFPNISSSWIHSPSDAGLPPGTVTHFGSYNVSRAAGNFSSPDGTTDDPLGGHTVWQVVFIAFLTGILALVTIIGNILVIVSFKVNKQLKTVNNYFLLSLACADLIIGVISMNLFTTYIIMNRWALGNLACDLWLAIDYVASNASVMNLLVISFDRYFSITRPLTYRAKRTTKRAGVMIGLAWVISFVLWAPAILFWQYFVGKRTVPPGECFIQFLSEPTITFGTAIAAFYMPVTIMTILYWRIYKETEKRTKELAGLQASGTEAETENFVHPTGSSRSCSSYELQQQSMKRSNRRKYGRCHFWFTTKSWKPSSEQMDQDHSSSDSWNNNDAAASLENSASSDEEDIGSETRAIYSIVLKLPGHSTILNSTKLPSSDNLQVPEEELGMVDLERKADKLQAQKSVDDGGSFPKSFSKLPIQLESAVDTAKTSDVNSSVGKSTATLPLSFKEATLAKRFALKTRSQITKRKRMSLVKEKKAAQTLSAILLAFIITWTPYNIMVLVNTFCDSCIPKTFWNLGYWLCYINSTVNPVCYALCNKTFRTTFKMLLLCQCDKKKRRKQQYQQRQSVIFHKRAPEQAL

[1] = antagonist IC50 at M3, read-out: M3 IC50
[2] = CHO-K1 cells stably expressing human M1 receptor with Aequorin, decrease in EC80 acetylcholine response, read-out: M1 IC50

N#Cc1ccc(N2C3CCC2CN(C(=O)CNCCc2cccc4ncsc24)C3)nc1 [Example 166, 6-[3-(2-{[2-(1,3-benzothiazol-7-yl)ethyl]amino}acetyl)-3,8-diazabicyclo[3.2.1]octan-8-yl]pyridine-3-carbonitrile]
IC50 (human M1 receptor): 100 to 1000 nM | IC50 (M2): 1000 to 10000 nM | IC50 (M3; [1]): 1000 to 10000 nM

N#Cc1ccc(N2C3CCC2CN(C(=O)C2CC(=Cc4cccc5cnccc45)C2)C3)nc1 (stereo not drawn) [Example 195, 6-(3-{3-[(isoquinolin-5-yl)methylidene]cyclobutanecarbonyl}-3,8-diazabicyclo[3.2.1]octan-8-yl)pyridine-3-carbonitrile]
IC50 (human M1 receptor; [2]): 1000 to 10000 nM | IC50 (M2): 1000 to 10000 nM | IC50 (M3; [1]): 1000 to 10000 nM

O=C(CCS(=O)(=O)c1cccc2nccn12)N1CCN(c2ccc(C(F)(F)F)cn2)CC1 [Example 106, 3-(imidazo[1,2-a]pyridin-5-ylsulfonyl)-1-(4-(5-(trifluoromethyl)pyridin-2-yl)piperazin-1-yl)propan-1-one]
IC50 (human M1 receptor; [2]): 1000 to 10000 nM | IC50 (M2): 1000 to 10000 nM | IC50 (M3; [1]): > 10000 nM

O=C(CCNCc1cccc2ncsc12)N1CC2CCC(C1)N2c1ccc(C(F)(F)F)cn1 [Example 148, 3-{[(1,3-benzothiazol-7-yl)methyl]amino}-1-{8-[5-(trifluoromethyl)pyridin-2-yl]-3,8-diazabicyclo[3.2.1]octan-3-yl}propan-1-one]
IC50 (human M1 receptor): 100 to 1000 nM | IC50 (M2): 1000 to 10000 nM | IC50 (M3; [1]): 1000 to 10000 nM

C[C@H]1CN(c2cnccc2Cl)CCN1C(=O)CCS(=O)(=O)c1cccc2ncsc12 [Example 101, (S)-3-(benzo[d]thiazol-7-ylsulfonyl)-1-(4-(4-chloropyridin-3-yl)-2-methylpiperazin-1-yl)propan-1-one]
IC50 (human M1 receptor; [2]): 100 to 1000 nM | IC50 (M2): 1000 to 10000 nM | IC50 (M3; [1]): > 10000 nM

N#Cc1ccc(N2C3CCC2CN(C(=O)C2CC(NCc4cccc5ncsc45)C2)C3)nc1 (stereo not drawn) [Example 30, 6-[3-(3-{[(1,3-benzothiazol-7-yl)methyl]amino}cyclobutanecarbonyl)-3,8-diazabicyclo[3.2.1]octan-8-yl]pyridine-3-carbonitrile]
IC50 (human M1 receptor): 100 to 1000 nM | IC50 (M2): 1000 to 10000 nM | IC50 (M3; [1]): > 10000 nM

N#Cc1ccc(C2=CC3CCC(C2)N3C(=O)CCS(=O)(=O)c2cccc3ncsc23)nc1 (stereo not drawn) [Example 141, 6-{8-[3-(1,3-benzothiazole-7-sulfonyl)propanoyl]-8-azabicyclo[3.2.1]oct-2-en-3-yl}pyridine-3-carbonitrile]
IC50 (human M1 receptor): 100 to 1000 nM | IC50 (M2): 1000 to 10000 nM | IC50 (M3; [1]): > 10000 nM

COc1cnc2cccc(COCCC(=O)N3C[C@H]4CC[C@@H](C3)N4c3ccncc3F)c2c1 [Example 76, 1-((1R,5S)-8-(3-fluoropyridin-4-yl)-3,8-diazabicyclo[3.2.1]octan-3-yl)-3-((3-methoxyquinolin-5-yl)methoxy)propan-1-one]
IC50 (human M1 receptor): < 100 nM | IC50 (M2): 1000 to 10000 nM | IC50 (M3; [1]): 1000 to 10000 nM

Cc1cc(F)cnc1N1C[C@H]2C[C@@H]1CN2C(=O)CCCc1cccc2ncccc12 (racemic) [Example 53, rac-1-((1R,4R)-5-(5-fluoro-3-methylpyridin-2-yl)-2,5-diazabicyclo[2.2.1]heptan-2-yl)-4-(quinolin-5-yl)butan-1-one]
IC50 (human M1 receptor; [2]): 1000 to 10000 nM | IC50 (M2): 1000 to 10000 nM | IC50 (M3; [1]): > 10000 nM

COc1cc(N2CCN(C(=O)CCCc3cccc4ncccc34)CC2)ccn1 [Example 69, 1-(4-(2-methoxypyridin-4-yl)piperazin-1-yl)-4-(quinolin-5-yl)butan-1-one]
IC50 (human M1 receptor; [2]): 100 to 1000 nM | IC50 (M2): > 10000 nM | IC50 (M3; [1]): 1000 to 10000 nM

CC1CN(c2ccc(F)cn2)CCN1C(=O)[C@H]1C[C@H](Oc2cccc3ncsc23)C1 (stereo partly drawn) [Example 5, ((1R,3R)-3-(benzo[d]thiazol-7-yloxy)cyclobutyl)(4-(5-fluoropyridin-2-yl)-2-methylpiperazin-1-yl)methanone]
IC50 (human M1 receptor; [2]): > 10000 nM | IC50 (M2): > 10000 nM | IC50 (M3; [1]): > 10000 nM

N#Cc1ccc(N2C3CCC2CN(C(=O)CCOCc2cccc4nccn24)C3)nc1 [Example 186, 6-{3-[3-({imidazo[1,2-a]pyridin-5-yl}methoxy)propanoyl]-3,8-diazabicyclo[3.2.1]octan-8-yl}pyridine-3-carbonitrile]
IC50 (human M1 receptor): < 100 nM | IC50 (M2): > 10000 nM | IC50 (M3; [1]): 1000 to 10000 nM

COc1cnc2cccc(CCOCC(=O)N3CC4CCC(C3)N4c3ccc(C#N)cn3)c2c1 [Example 181, 6-(3-{2-[2-(3-methoxyquinolin-5-yl)ethoxy]acetyl}-3,8-diazabicyclo[3.2.1]octan-8-yl)pyridine-3-carbonitrile]
IC50 (human M1 receptor): < 100 nM | IC50 (M2): 1000 to 10000 nM | IC50 (M3; [1]): 1000 to 10000 nM

N#Cc1ccc(N2C3CCC2CN(C(=O)CCOCc2cccc4c2OCO4)C3)nc1 [Example 187, 6-(3-{3-[(2H-1,3-benzodioxol-4-yl)methoxy]propanoyl}-3,8-diazabicyclo[3.2.1]octan-8-yl)pyridine-3-carbonitrile]
IC50 (human M1 receptor): 100 to 1000 nM | IC50 (M2): > 10000 nM | IC50 (M3; [1]): > 10000 nM

C[C@H]1CN(c2cnc(C(F)(F)F)nc2)CCN1C(=O)CCS(=O)(=O)c1cccc2ncsc12 [Example 115, (S)-3-(benzo[d]thiazol-7-ylsulfonyl)-1-(2-methyl-4-(2-(trifluoromethyl)pyrimidin-5-yl)piperazin-1-yl)propan-1-one]
IC50 (human M1 receptor; [2]): > 10000 nM | IC50 (M2): > 10000 nM | IC50 (M3; [1]): 1000 to 10000 nM

N#Cc1ccc(N2C3COCC2CN(C(=O)CCCc2cccc4ncccc24)C3)nc1 [Example 154, 6-{7-[4-(quinolin-5-yl)butanoyl]-3-oxa-7,9-diazabicyclo[3.3.1]nonan-9-yl}pyridine-3-carbonitrile]
IC50 (human M1 receptor): < 100 nM | IC50 (M2): 1000 to 10000 nM | IC50 (M3): 100 to 1000 nM

N#Cc1ccc(N2C3CCC2CN(C(=O)N2CC(=Cc4cccc5ncccc45)C2)C3)nc1 [Example 46, 6-(3-{3-[(quinolin-5-yl)methylidene]azetidine-1-carbonyl}-3,8-diazabicyclo-[3.2.1]octan-8-yl)pyridine-3-carbonitrile]
IC50 (human M1 receptor): 100 to 1000 nM | IC50 (M2): 1000 to 10000 nM | IC50 (M3; [1]): 1000 to 10000 nM

N#Cc1ccc(N2C3CCC2CN(C(=O)COCc2cccc4ncnn24)C3)nc1 [Example 182, 6-{3-[2-({[1,2,4]triazolo[1,5-a]pyridin-5-yl}methoxy)acetyl]-3,8-diazabicyclo[3.2.1]octan-8-yl}pyridine-3-carbonitrile]
IC50 (human M1 receptor; [2]): 1000 to 10000 nM | IC50 (M2): > 10000 nM | IC50 (M3; [1]): > 10000 nM

Cc1cc(C#N)cnc1N1CC2CCC(C1)N2C(=O)CCNCc1cccc2ncsc12 [Example 161, 6-[8-(3-{[(1,3-benzothiazol-7-yl)methyl]amino}propanoyl)-3,8-diazabicyclo[3.2.1]octan-3-yl]-5-methylpyridine-3-carbonitrile]
IC50 (human M1 receptor): 100 to 1000 nM | IC50 (M2): 1000 to 10000 nM | IC50 (M3; [1]): > 10000 nM

Cc1ccncc1N1CCN(C(=O)CCCc2cccc3ncccc23)[C@H](C)C1 [Example 78, (R)-1-(2-methyl-4-(4-methylpyridin-3-yl)piperazin-1-yl)-4-(quinolin-5-yl)butan-1-one]
IC50 (human M1 receptor; [2]): < 100 nM | IC50 (M2): 1000 to 10000 nM | IC50 (M3; [1]): 1000 to 10000 nM

C[C@H]1CN(c2cc(F)c(F)c(F)c2)CCN1C(=O)CCS(=O)(=O)c1cccc2ncsc12 [Example 116, (S)-3-(benzo[d]thiazol-7-ylsulfonyl)-1-(2-methyl-4-(3,4,5-trifluorophenyl)piperazin-1-yl)propan-1-one]
IC50 (human M1 receptor; [2]): 1000 to 10000 nM | IC50 (M2): 1000 to 10000 nM | IC50 (M3; [1]): 1000 to 10000 nM
